Results from a compilation of properties of binary mixtures (doi:10.1021/je5008857).

Assay: xn = mol fraction of the nth substance listed
Conditions: 101 kPa

CC(=O)[O-].[NH4+] + CC(=O)[O-].CC[n+]1ccn(C)c1
Conditions	electrical conductivity [S/m]	viscosity [mPa·s]
298.15 K, x1 = 0.0503	0.255	153
298.15 K, x1 = 0.0999	0.226	186
298.15 K, x1 = 0.1703	0.181	261
298.15 K, x1 = 0.2498	0.146	389
298.15 K, x1 = 0.328	0.114	572
303.15 K, x1 = 0.0503	0.337	111.7
303.15 K, x1 = 0.0999	0.299	134.7
303.15 K, x1 = 0.1703	0.242	186
303.15 K, x1 = 0.2498	0.199	271
303.15 K, x1 = 0.328	0.158	390
303.15 K, x1 = 0.4491	0.106	673
308.15 K, x1 = 0.0503	0.431	83.9
308.15 K, x1 = 0.0999	0.389	100.1
308.15 K, x1 = 0.1703	0.319	135.5
308.15 K, x1 = 0.2498	0.266	194
313.15 K, x1 = 0.0503	0.542	64.6
313.15 K, x1 = 0.2498	0.349	142.3
313.15 K, x1 = 0.4491	0.201	321
318.15 K, x1 = 0.0503	0.671	50.7
318.15 K, x1 = 0.0999	0.617	59.1
318.15 K, x1 = 0.1703	0.519	77.2
318.15 K, x1 = 0.4491	0.267	230
323.15 K, x1 = 0.0503	0.862	40.5
323.15 K, x1 = 0.0999	0.796	46.6
323.15 K, x1 = 0.1703	0.641	59.9
323.15 K, x1 = 0.2498	0.562	81.3
323.15 K, x1 = 0.328	0.471	108.4
323.15 K, x1 = 0.4491	0.347	169

CC(=O)[O-].[Na+] + CC(=O)[O-].CC[n+]1ccn(C)c1
Conditions	electrical conductivity, x1 = 0.0501 [S/m]	electrical conductivity, x1 = 0.1001 [S/m]	electrical conductivity, x1 = 0.1605 [S/m]	viscosity, x1 = 0.0501 [mPa·s]	viscosity, x1 = 0.1001 [mPa·s]	viscosity, x1 = 0.1605 [mPa·s]
298.15 K	0.232	0.189	0.152	160	205	300
303.15 K	0.305	–	0.207	117.1	–	210
308.15 K	0.392	0.327	0.272	88	109.3	153
313.15 K	0.491	0.416	0.352	67.7	83.1	113.7
318.15 K	0.606	0.518	0.442	53.2	64.7	86.9
323.15 K	0.734	0.632	0.537	42.7	51.3	67.9

CCS(=O)(=O)[O-].[NH4+] + CC(=O)[O-].CC[n+]1ccn(C)c1
Conditions	electrical conductivity, x1 = 0.05 [S/m]	electrical conductivity, x1 = 0.0999 [S/m]	electrical conductivity, x1 = 0.1701 [S/m]	viscosity, x1 = 0.05 [mPa·s]	viscosity, x1 = 0.0999 [mPa·s]	viscosity, x1 = 0.1701 [mPa·s]
298.15 K	0.247	0.2	0.164	157	210	299
303.15 K	0.323	0.266	0.222	115	151	210
308.15 K	0.415	0.346	0.293	86.3	111.2	151
313.15 K	0.522	0.442	–	66.2	83.9	–
318.15 K	–	0.553	0.481	–	64.6	84.7
323.15 K	0.775	–	–	41.3	–	–

N#C[S-].[Na+] + CC(=O)[O-].CC[n+]1ccn(C)c1
x1 = 0.0502
Conditions	electrical conductivity [S/m]	viscosity [mPa·s]
298.15 K	0.242	150
303.15 K	0.316	110.4
308.15 K	0.404	83.3
313.15 K	0.504	64.4
318.15 K	0.618	50.9
323.15 K	0.734	40.9

[Cl-].[NH4+] + CC(=O)[O-].CC[n+]1ccn(C)c1
Conditions	electrical conductivity, x1 = 0.0505 [S/m]	electrical conductivity, x1 = 0.0999 [S/m]	electrical conductivity, x1 = 0.1702 [S/m]	electrical conductivity, x1 = 0.25 [S/m]	electrical conductivity, x1 = 0.3297 [S/m]	viscosity, x1 = 0.0505 [mPa·s]	viscosity, x1 = 0.0999 [mPa·s]	viscosity, x1 = 0.1702 [mPa·s]	viscosity, x1 = 0.25 [mPa·s]	viscosity, x1 = 0.3297 [mPa·s]
298.15 K	–	0.19	0.139	0.0911	0.0567	–	236	405	775	1608
303.15 K	–	0.255	0.192	0.13	0.0843	–	168	278	511	1040.8
308.15 K	0.398	0.333	0.259	0.179	0.121	92.9	122.6	196	348	693
313.15 K	0.501	–	–	0.242	0.169	71	–	–	245	478
318.15 K	–	0.537	0.439	0.32	0.23	–	70.2	106.2	177	339
323.15 K	–	0.661	0.552	0.414	0.305	–	54.7	80.6	130.5	246

CC(=O)[O-].CC[n+]1ccn(C)c1 + CC(=O)[O-].[NH4+]
x2 = 0
Conditions	electrical conductivity [S/m]	viscosity [mPa·s]
298.15 K	0.287	126.3
303.15 K	0.374	93.6
308.15 K	0.473	71.3
313.15 K	0.587	55.5
318.15 K	0.76	44.2

CC(=O)[O-].CC[n+]1ccn(C)c1 + CC(=O)[O-].[Na+]
x2 = 0
Conditions	electrical conductivity [S/m]	viscosity [mPa·s]
298.15 K	0.287	126.3
303.15 K	0.374	93.6
308.15 K	0.473	71.3
313.15 K	0.587	55.5
318.15 K	0.76	44.2
323.15 K	0.918	35.7

CC(=O)[O-].CC[n+]1ccn(C)c1 + CCS(=O)(=O)[O-].[NH4+]
x2 = 0
Conditions	electrical conductivity [S/m]	viscosity [mPa·s]
298.15 K	0.287	126.3
308.15 K	0.473	71.3
313.15 K	0.587	55.5
323.15 K	0.918	35.7

CC(=O)[O-].CC[n+]1ccn(C)c1 + N#C[S-].[Na+]
x2 = 0
Conditions	electrical conductivity [S/m]	viscosity [mPa·s]
298.15 K	0.287	126.3
308.15 K	0.473	71.3
318.15 K	0.76	44.2
323.15 K	0.918	35.7

CC(=O)[O-].CC[n+]1ccn(C)c1 + [Cl-].[NH4+]
x2 = 0
Conditions	electrical conductivity [S/m]	viscosity [mPa·s]
298.15 K	0.287	126.3
303.15 K	0.374	93.6
313.15 K	0.587	55.5
323.15 K	0.918	35.7
